Results on 2 molecules are retold here after ChEMBL document CHEMBL1128892, “Pharmacological evaluation of UK-14,304 analogs at cloned human adrenergic receptors” (Bioorg Med Chem Lett, 1995).

For test [1], the target named is T1, Alpha-2A adrenergic receptor (Homo sapiens, UniProt P08913).
T1 sequence (P08913 whole entry): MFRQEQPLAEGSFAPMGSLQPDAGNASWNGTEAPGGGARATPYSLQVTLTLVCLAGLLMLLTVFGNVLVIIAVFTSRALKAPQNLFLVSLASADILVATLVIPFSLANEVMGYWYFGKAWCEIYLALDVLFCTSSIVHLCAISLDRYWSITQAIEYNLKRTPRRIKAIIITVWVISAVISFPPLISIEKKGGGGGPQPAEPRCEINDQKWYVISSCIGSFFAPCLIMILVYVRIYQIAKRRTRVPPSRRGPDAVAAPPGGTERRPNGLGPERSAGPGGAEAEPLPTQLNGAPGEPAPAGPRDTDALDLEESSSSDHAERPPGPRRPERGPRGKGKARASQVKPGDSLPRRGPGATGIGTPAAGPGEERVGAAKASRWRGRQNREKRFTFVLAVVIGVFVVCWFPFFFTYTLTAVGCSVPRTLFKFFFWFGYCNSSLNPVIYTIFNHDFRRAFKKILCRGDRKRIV
Briefly: Alpha-2A adrenergic receptor agonistic potency as inhibition of forskolin-stimulated synthesis of cyclic adenosine monophosphate. Type of test: functional.

The target in test [2] is T1, Alpha-2A adrenergic receptor. Briefly: Binding affinity for human Alpha-2A adrenergic receptor from cultured LM(tk-) cells using [3H]rauwolscine.
The target of test [3] is T2, Alpha-1A adrenergic receptor (Homo sapiens, UniProt P35348).
T2 sequence (P35348 whole entry): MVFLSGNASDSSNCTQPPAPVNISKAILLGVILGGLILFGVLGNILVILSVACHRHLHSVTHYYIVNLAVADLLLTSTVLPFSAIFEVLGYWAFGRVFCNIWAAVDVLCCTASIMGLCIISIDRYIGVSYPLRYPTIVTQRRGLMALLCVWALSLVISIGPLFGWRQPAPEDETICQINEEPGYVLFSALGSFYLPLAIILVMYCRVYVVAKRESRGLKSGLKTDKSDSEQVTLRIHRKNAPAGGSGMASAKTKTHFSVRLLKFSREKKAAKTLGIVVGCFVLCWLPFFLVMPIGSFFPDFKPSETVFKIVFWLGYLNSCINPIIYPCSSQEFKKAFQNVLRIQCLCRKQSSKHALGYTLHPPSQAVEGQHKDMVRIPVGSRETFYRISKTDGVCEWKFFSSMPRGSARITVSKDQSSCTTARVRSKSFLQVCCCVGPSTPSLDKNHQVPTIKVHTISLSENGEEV
As to the kind of experiment: Binding affinity for human Alpha-1A adrenergic receptor from cultured LM(tk-) cells using [3H]-prazosin.

Test [4] concerns the target T3, Alpha-2B adrenergic receptor (Homo sapiens, UniProt P18089).
T3 sequence (P18089 whole entry): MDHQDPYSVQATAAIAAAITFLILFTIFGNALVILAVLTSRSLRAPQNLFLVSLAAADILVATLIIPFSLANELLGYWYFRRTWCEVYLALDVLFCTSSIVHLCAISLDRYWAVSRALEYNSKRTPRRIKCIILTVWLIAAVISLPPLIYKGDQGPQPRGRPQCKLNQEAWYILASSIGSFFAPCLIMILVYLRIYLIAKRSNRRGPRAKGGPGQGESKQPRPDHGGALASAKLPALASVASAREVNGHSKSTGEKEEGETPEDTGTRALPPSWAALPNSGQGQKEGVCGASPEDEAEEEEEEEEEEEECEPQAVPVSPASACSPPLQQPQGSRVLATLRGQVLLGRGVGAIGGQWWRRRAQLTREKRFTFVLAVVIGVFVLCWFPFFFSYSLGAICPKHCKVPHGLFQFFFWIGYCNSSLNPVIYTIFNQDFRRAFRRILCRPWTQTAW
Briefly: Alpha-2B adrenergic receptor agonistic potency as inhibition of forskolin-stimulated cyclic adenosine monophosphate synthesis. The test is classed as functional.

Test [5] addresses T3, Alpha-2B adrenergic receptor. As to the kind of experiment: Binding affinity for human Alpha-2B adrenergic receptor from cultured LM(tk-) cells using [3H]- prazosin.
For test [6], the target named is T4, Alpha-1B adrenergic receptor (Homo sapiens, UniProt P35368).
T4 sequence (P35368 whole entry): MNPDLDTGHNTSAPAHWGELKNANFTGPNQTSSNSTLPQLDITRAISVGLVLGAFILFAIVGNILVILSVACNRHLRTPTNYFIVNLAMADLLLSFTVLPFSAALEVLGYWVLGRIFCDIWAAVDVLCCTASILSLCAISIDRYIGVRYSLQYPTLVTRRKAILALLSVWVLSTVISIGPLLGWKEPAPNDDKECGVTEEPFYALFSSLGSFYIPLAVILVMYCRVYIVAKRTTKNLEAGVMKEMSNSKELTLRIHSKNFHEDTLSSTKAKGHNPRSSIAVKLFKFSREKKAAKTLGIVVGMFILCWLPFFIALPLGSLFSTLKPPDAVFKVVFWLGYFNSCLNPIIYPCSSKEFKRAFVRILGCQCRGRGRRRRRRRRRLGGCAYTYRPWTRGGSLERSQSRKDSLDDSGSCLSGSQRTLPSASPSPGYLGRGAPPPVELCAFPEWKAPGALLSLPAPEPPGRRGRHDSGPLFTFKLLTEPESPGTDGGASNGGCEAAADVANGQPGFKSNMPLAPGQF
Briefly: Binding affinity for human Alpha-1B adrenergic receptor from cultured LM(tk-) cells using [3H]prazosin.

Test [7] addresses T5, Alpha-2A adrenergic receptor (Homo sapiens) (UniProt P08913).
T5 sequence (whole entry): T1 sequence (P08913 whole entry)
Briefly: Inhibitory activity against Alpha-2A adrenergic receptor relative to norepinephrine.

In test [8] the target is T6, Alpha-2C adrenergic receptor (Homo sapiens) (UniProt P18825).
T6 sequence (whole entry): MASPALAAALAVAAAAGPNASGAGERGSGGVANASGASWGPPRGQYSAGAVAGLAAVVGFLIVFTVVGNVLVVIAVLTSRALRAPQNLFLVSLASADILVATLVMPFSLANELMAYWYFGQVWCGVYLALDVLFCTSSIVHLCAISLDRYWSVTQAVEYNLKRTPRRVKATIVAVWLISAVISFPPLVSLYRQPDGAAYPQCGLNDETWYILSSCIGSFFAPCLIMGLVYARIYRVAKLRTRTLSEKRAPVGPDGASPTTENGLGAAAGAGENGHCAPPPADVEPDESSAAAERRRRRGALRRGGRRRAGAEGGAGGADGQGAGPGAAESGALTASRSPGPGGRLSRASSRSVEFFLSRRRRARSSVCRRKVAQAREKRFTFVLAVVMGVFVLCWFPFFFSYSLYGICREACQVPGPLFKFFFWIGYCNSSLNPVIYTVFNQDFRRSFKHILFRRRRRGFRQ
As to the kind of experiment: Inhibitory activity against Alpha-2C adrenergic receptor relative to norepinephrine.

Test [9] deals with T7, Alpha-2C adrenergic receptor (Homo sapiens, UniProt P18825).
T7 sequence (P18825 whole entry): T6 sequence (whole entry)
As to the kind of experiment: Alpha-2C adrenergic receptor agonistic potency as inhibition of forskolin-stimulated cyclic adenosine monophosphate synthesis. The test is classed as functional.

Test [10] addresses T7, Alpha-2C adrenergic receptor. As to the kind of experiment: Binding affinity for human Alpha-2C adrenergic receptor from cultured LM(tk-) cells using [3H]- prazosin.
Test [11] concerns the target T8, Alpha-1D adrenergic receptor (Homo sapiens, UniProt P25100).
T8 sequence (P25100 whole entry): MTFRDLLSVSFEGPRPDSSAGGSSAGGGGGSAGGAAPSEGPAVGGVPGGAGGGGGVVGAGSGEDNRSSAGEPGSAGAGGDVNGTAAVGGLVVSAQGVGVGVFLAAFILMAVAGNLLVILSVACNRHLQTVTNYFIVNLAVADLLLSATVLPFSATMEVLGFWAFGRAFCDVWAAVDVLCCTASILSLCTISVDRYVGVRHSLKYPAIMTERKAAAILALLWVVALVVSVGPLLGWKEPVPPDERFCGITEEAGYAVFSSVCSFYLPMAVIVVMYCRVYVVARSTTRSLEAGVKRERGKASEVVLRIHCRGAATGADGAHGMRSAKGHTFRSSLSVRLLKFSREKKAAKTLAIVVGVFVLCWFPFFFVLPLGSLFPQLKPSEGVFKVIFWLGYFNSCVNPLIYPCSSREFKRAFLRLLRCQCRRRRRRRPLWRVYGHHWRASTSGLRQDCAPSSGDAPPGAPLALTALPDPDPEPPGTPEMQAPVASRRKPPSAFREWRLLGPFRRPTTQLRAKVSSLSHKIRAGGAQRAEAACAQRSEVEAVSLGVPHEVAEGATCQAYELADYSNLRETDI
Briefly: Binding affinity for human Alpha-1D adrenergic receptor from cultured LM(tk-) cells using [3H]- prazosin.

Test [12] concerns the target T3, Alpha-2B adrenergic receptor. As to the kind of experiment: Binding affinity for human alpha-2B adrenoceptor from cultured Y-1 cells using [3H]rauwolscine. The test is classed as cell-based.
Test [13] concerns the target T9, Alpha-2B adrenergic receptor (Homo sapiens) (UniProt P18089).
T9 sequence (whole entry): T3 sequence (P18089 whole entry)
Briefly: Inhibitory activity against alpha-2B adrenoceptor relative to norepinephrine at 100 uM; Not active.

For test [14], the target named is T9, Alpha-2B adrenergic receptor (Homo sapiens). The conditions noted are these: 100 uM.

Structures are written as SMILES. Active and inactive are the calls of the source. The calls are words filed in the database; no cut-off is given here.

Regarding `Cc1c(NC2=NCCN2)ccc2nccnc12`, the results for the EC50 in test [1], in test [4] and in test [9] were 1.2 nM, 77.6 nM and 14.1 nM, respectively. The Ki in [2] was 7.24 nM; in test [3] it was 1480 nM; in test [5], 8.91 nM; in test [6], 3310 nM; in test [10], 28.2 nM; in test [11], 562 nM. The Intrinsic activity in test [7] and in test [8] was 1 each time.
For `Ic1c(NC2=NCCN2)ccc2nccnc12`, the EC50 in test [1] is 11.5 nM; in test [9], 55 nM. Besides, the Ki was 6.76 nM in [2]; 977 nM in test [3]; 42.7 nM in [12]; 1910 nM in test [6]; 407 nM in test [10]; 282 nM in test [11]. The Intrinsic activity result in [13] was “inactive”. In addition, the Intrinsic activity in [7] and in test [8] was 1 in each case. In addition, the “Log EC50” value in test [14] was “inactive”.
